Literature values, collected in US10663473B2, “Method of identifying a status of a mucosal intestinal epithelial barrier to improve treatment of inflammatory bowel disease” (Maximus Diagnostic Technologies LLC, priority 2016, dated 2020).

System: IBD patients
Settings: cited from earlier work

Substance: golimumab: monoclonal antibody to TNF-alpha sold under the trademark Simponi
- short-term and long-term clinical response rate (all UC patients): 50%

Substance: vedolizumab: monoclonal antibody that specifically binds to integrin α4β7, sold under the name ENTYVIO by Takeda Pharmaceuticals
- clinical response rate (particularly for Crohn's disease, compared with anti-TNF agents): low
